The results in this text go back to US20060204981A1, “Compositions for modulation of PARP and methods for screening for same” (priority 2005, published 2006).

The test system of data set [1] is HeLa cells. Put plainly: MTT cell death assay, HeLa cells. The class given is cell-based. As to conditions: for cell survival percentage: MTT (FIG. 1). How it is done:
(§1) Cell death was determined by the 3-(4,5-dimethylthiazol-2-yl)-2,5-diphenyl tetrazolium bromide (MTT) assay or by trypan blue exclusion, as indicated. Briefly, HeLa and DLD1 cells were plated in a 96-well plate at 10,000 cells per well, cultured for 24 h in complete growth medium, then treated with various concentrations of β-lapachone for 4 h MTT was added to a final concentration of 0.5 mg/ml, and incubated for 1 hr, followed by assessment of cell viability using a microplate reader at 570 nm. For the trypan blue exclusion assay, HeLa and DLD1 cells were plated in 6-well plate and treated in the same way. They were harvested, and trypan blue dye solution was added to the cell suspension. Total cell counts and viable cell numbers were determined with a hemacytometer. For the PARP inhibition study, cells were […] for 1 h with the PARP inhibitor 3-aminobenzamide (3-AB, 5 mM), and then co-treated with inhibitor and β-lapachone for a further 4 h, followed by MTT assay or trypan blue staining. […] HeLa and DLD1 cells were plated in 96-well plates at 10,000 cells per well, cultured for 24 h in complete growth medium, pretreated with PARP inhibitor 3-AB […] or equal volume of DMSO for 1 h, and then exposed to β-lapachone at various concentrations for a further 4 h, followed by MTT assay.

Another data set deals with DLD1 cells. Nature of the data set: MTT cell death assay, DLD1 cells. The class given is cell-based, human. As for the experimental part: as §1
(In general: Tetrazolium assays rely on reduction of a dye to a coloured formazan, in cell work by metabolically active cells.)

Data set [2] relates to HeLa cells. Put plainly: NAD depletion assay. The class given is cell-based. As for the experimental part: HeLa cells were plated at 6×10^5 cells per well (35 mm, 6-well dishes). Eighteen hours after plating, cells were treated with β-lapachone (0, 2, 4 or 8 μM) in growth media (DMEM; 10% FBS) for the time periods indicated (15, 30 and 60 minutes). Following drug treatment cells were washed 2× with PBS. Cells were subsequently lysed in 200 μL NAD lysis buffer (61 mM glycyl-glycine, pH 7.4, 0.1% Triton-X-100). Cellular lysates were clarified by centrifugation at 16,000 g for 10 minutes. Aliquots of clarified lysates were transferred to 96-well plates (25 μL samples in triplicate) for to determine NAD^+ concentrations.
Determination of lysate NAD levels was performed using a modification of the NAD recycling assay described by Ying et al. (PNAS, 98(21):12227-32 (2001)). Briefly, the NAD reaction mixture consisted of 0.1 mM 3-[4,5-dimethylthiazol-2-yl]-2,5-diphenyl-tetrazolium bromide (MTT), 0.9 mM phenazine methosulfate, 13 units/ml alcohol dehydrogenase (from yeast extract, Sigma), 100 mM nicotinamide, and 5.7% ethanol in 61 mM Gly-Gly buffer (pH 7.4). To each aliquot of cellular lysate, 200 μL of reaction mixture was added. Absorbance readings (560 nm) were taken every minute for five minutes. Results were calibrated with NAD^+ standards and were subsequently normalized to protein concentration as determined using the Bio-Rad protein Assay.

Data set [3] concerns PARP. Nature of the data set: Immunofluorescence analysis with anti-poly(ADP-ribose) antibody, HeLa cells. Format: cell-based.
Experimental: HeLa and DLD1 cells were grown on coverslips for PARP activity experiments. Cells treated with 4 uM β-lapachone at different time points and fixed with methanol acetone (70/30, v/v) for 10 min at −20° C. Coverslips were air dried and rehydrated in PBS at room temperature for 10 min. Samples were than incubated in blocking buffer (PBS, 5% FBS) for 10 minutes at room temperature in a humid chamber. Cells were incubated overnight at 4° C. with monoclonal anti-poly(ADP-ribose) antibody (I OH, 1:100 dilution). After washing, the cells were incubated for 1 hr at room temperature with a 1:500 dilution of FITC conjugated anti-mouse antibody. For the PARP inhibition study, cells pre-teated for 1 h with the PARP inhibitor 3-aminobenzamide (3-AB, 5 mM), and then co-treated with inhibitor and β-lapachone for a further 10 minutes followed by immunofluorescence staining. Immunofluorescence was evaluated using an immunofluorescence microscope equipped with a CCD camera.
HeLa cells were grown on coverslips for 24 h, then treated with 4 μM β-lapachone at different time points and fixed with methanol acetone (70/30, v/v) for 10 min. Samples were incubated in blocking buffer (5% FBS in PBS) for 10 minutes at room temperature in a humid chamber. […] Immunofluorescence was evaluated using an immunofluorescence microscope equipped with a CCD camera. […]
Data set [4] deals with E2F1 tet-inducible DLD1 cells. Put plainly: Apoptosis in E2F1 tet-inducible DLD1 cells. Format: cell-based. An excerpt:
To investigate E2F1 induced apoptosis, an inducible system was established. Human colon cancer cell lines harboring a mutated p53 gene were used to generate E2F1-inducible cell lines (Rodrigues, et al., PNAS, 87:7555-9 (1990)). […] Under the tetracycline induction conditions, a significant percentage of DLD1 cells undergoing apoptosis were detected at a given time point (10% at day 3; 15% at day 4) as determined by propidium iodide (PI) staining and flow cytometry (FIG. 10B). The apoptosis was further confirmed by assaying morphological changes following expression of E2F1 (FIG. 10C). Similar data was obtained in E2F1-inducible SW480 human colon cancer cells. In addition to proapoptotic function, E2F1 is a necessary transcription factor for cell proliferation (Johnson, D. et al., Nature 365:349-52 (1993); Wu, L. et al. Nature 414:457-62 (2001)). Under these experimental conditions, no significant changes in overall cell cycle distribution were observed.
To further investigate the mechanism of E2F1-induced apoptosis, the role of caspase activation was investigated. Two forms of caspase-3, procaspase and cleaved caspase were detected by western blot analysis. […] Further, it was determined if E2F1-induced, p53 independent apoptosis was affected by inhibiting caspase function with a pancaspase inhibitor. Apoptosis induced by camptothecin, a known caspase-3 activator, was used as a positive control.
Activation of PARP-1 has been implicated in caspase independent apoptosis. It was investigated whether E2F1 induced cell death involved PARP-1 activation. Poly ADP ribosylation (PAR), the functional indicator of PARP-1 activation, was detected by immunoblot with a specific anti-PAR antibody. […] Immunocytochemical staining of PAR further conformed the activity of PARP-1 (FIG. 11B). The nuclear PAR stain was increased after expression of E2F1 for 24 h and reached a plateau at 48 h. To determine if poly ADP ribosylation plays a causal role in E2F1 induced apoptosis, 3′-aminobenzamide (3′-AB), a universal inhibitor of PARP activity, was used.
Protein poly ADP ribosylation is catalysed by members of the poly (ADP-ribose) polymerase family that consists of 18 genes (Amé, J. C., et al., Bioessays 26:882-93 (2004)). The PARP-1 protein is the dominant member in most cells, which contributes the majority of overall poly ADP ribosylation induced by DNA damage (Davidovic, L. et al., Exp Cell Res 268:7-13 (2001)). To distinguish which member of the PARP family was involved in E2F1-induced apoptosis, siRNA technology was utilized to reduce PARP-1 protein levels. A chemically synthesized PARP-1 siRNA pool was electroporated into the DLD1-E2F1 inducible cell line. The PARP-1 protein began to decrease at day 2 and reached the lowest levels at day 4 and gradually recovered from day 6 as shown by western blot (FIG. 12A) and immunocytochemical staining. […] The E2F1-induced apoptosis was compromised following PARP-1 knockdown (P<0.001) (FIG. 12C).

The next data set deals with MCF7 cells. Put plainly: NAD+ supplementation experiment, MTT assay. The class given is cell-based. The conditions noted are these: Homo sapiens, 4 h, MTT (FIG. 8), read-out: IC50 (cytotoxicity). As for the experimental part: For NAD^+ supplementation experiment, MCF7 cells were plated in 96-well plates at a density of 10,000 cells per well. Sixteen to eighteen hours later cells were pre-treated with […] 3-aminobenzamide, 10 mM NAD+, or vehicle control (all treatments in formulated in growth media: DMEM with 10% fetal bovine serum) for 1 hour at 37° C. Following this incubation, cells (under each pre-incubation treatment) were treated with β-lapachone at indicated concentrations for 4 hours at 37° C. An MTT assay was then performed as described above.

In data set [5] the test system is PARP. Nature of the data set: PARP activity assay in cell lysate. As to conditions: various β-lapachone concentrations vs 0 μM control, dose-dependent (FIG. 9). The class given is biochemical, human. As for the experimental part:
A cell extract was generated by scraping a 15 cm (˜80% confluent) dish of MCF7 cells into 1.5 ml of PARP buffer (50 mM Tris pH 8.0, 25 mM MgCl2) containing protease inhibitors. The cell suspension was sonicated at 30% amplitude with 3×10 second bursts on ice. The cell lysate was subsequently clarified by centrifugation at 16,000 g for 10 minutes at 4° C. Any remaining insoluble material was removed by passing the clarified lysate through a 5 ml syringe containing a cotton pad-filter. The protein concentration of extracts was typically between […]. PARP in vitro activity was determined using a modification of the PARP in vitro assay from TREVIGEN™. Reactions were comprised of the following: ˜60 μg of cellular protein, 100 μM NAD, 10 μg of histone H1, β-lapachone (at various concentrations) or DMSO control, 25 mM MgCl2, 50 mM Tris-Cl pH 8.0. Reactions were incubated for 10 minutes at room temperature and terminated by the addition of 900 μL of cold 25% trichloroacetic acid. Terminated reactions were incubated on ice for 10 minutes. TCA-precipitated proteins were isolated by passing reaction over glass-fiber filters under vacuum. Filters were subsequently washed three times with 5 ml of 5% TCA followed by 2 washes with cold ethanol. […] The amount of ^32P labeled NAD incorporated into polyribosylated proteins was then determined by liquid scintillation measurement.

Like-named read-outs stand apart in the source and are kept apart here. Bounds are passed on as bounds.

By inhibition is commonly meant the percentage by which the read-out fell short of the control. `NC(=O)c1cccc(N)c1` [3-aminobenzamide]: the “effect on β-lapachone-induced cell death” value is reported as “blocked” in the data set with HeLa cells [1] (HeLa cells, 3-AB pretreatment 1 h, MTT) and “blocked” in the data set on DLD1 cells (3-AB pretreatment 1 h, MTT). Moreover, the “effect on β-lapachone-mediated NAD+ depletion” value with HeLa cells [2] (data not shown) is “inhibited”. For the same compound, the “effect on β-lapachone induced activation of PARP” value in the data set on PARP [3] (5 mM 3-AB 1 h, then 4 μM β-lapachone 10 minutes (FIG. 5)) was “blocked”. For the same compound, in data set [4] (3′-AB alone vs control group), the “effect on apoptosis of addition alone” value is on record as “no effect on apoptosis”. Also, the inhibition at 5000 µM in data set [4] (Homo sapiens, DLD-1, read-out: inhibition of E2F1 induced apoptosis) is greater than 70%.

For Z-VAD, in data set [4] (Z-VAD alone), the “cytotoxic effects of addition alone” value was “no cytotoxic effects”. In addition, the “effect on camptothecin-induced apoptosis” value in data set [4] (Z-VAD at 50 μM (FIG. 10F)) is “blocked”. In addition, the “effect on E2F1-induced apoptosis” value in data set [4] (Z-VAD at 50 μM, tetracycline induction (FIG. 10F)) is listed as “failed to block”.

The IC50 is the concentration needed to halve the response being measured. For `CC1(C)CCC2=C(O1)c1ccccc1C(=O)C2=O` [β-lapachone, 3,4-dihydro-2,2-dimethyl-2H-naphtho [1,2-b]pyran-5,6-dione], the cell survival percentage in the data set on HeLa cells [1] (HeLa cells, pretreated 1 h with PARP inhibitor 3-AB, then β-lapachone for 4 h) is reported as roughly 60%; with HeLa cells [1] (HeLa cells, β-lapachone for 4 h without 3-AB), “approximately 5%”; in the data set with DLD1 cells (pretreated 1 h with PARP inhibitor 3-AB, then β-lapachone for 4 h, MTT (FIG. 1)), “approximately 75%”. Also, the IC50 is roughly 2.8 µM with HeLa cells [1] (Homo sapiens, HeLa, cytotoxicity IC50 quoted in the NAD+ depletion example, cell line not given); roughly 2.7 µM with MCF7 cells (control (no NAD+ supplementation)); roughly 6.6 µM with MCF7 cells (exogenous NAD+ supplementation (10 mM, 1 h pre-treatment)). For the same compound, the “cellular NAD+ levels” value was ~20 % of control in the data set on HeLa cells [2] (8 μM β-lapachone, within 15 minutes (FIG. 7)) and “less than 50 % of control” in the data set with HeLa cells [2] (β-lapachone concentrations in excess of the IC50, by 30 minutes (FIG. 7)). Besides, the “activation of PARP (anti-poly(ADP-ribose) fluorescence)” value with PARP [3] (4 μM β-lapachone, 5 minutes to 2 hours (FIG. 4)) is given as “increases fluorescence”. The “PARP activity in cellular lysate” value with PARP [5] is recorded as “induces enhancement of PARP activity above the basal level”.
